Reference: the supplement of paper PMC10307832

Assays:
Test in all cases: relative viability (nuclei count vs DMSO), 5 days (fraction); higher = more cells survive
[1] = compound: CCC1=CN=CN=C1N2CCN(CC2)CC3=NC4=C(N3)C=C(C=C4)C(F)(F)F + O=C(CCCCCCC(=O)Nc1ccccc1)NO [Vorinostat] (partner 1 µM)
In short: (§1)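 A single step with final 0.05% Triton X-100, 1% formaldehyde and 1 ug/ml Hoechst fixed the cells and stained nuclei 5 days after treatment. Lung cancer cell lines in 1536-well plates had been treated by pin tool the day after seeding with one drug alone or a fixed anchor-drug dose plus five library-drug doses (not always all listed) in √10 steps, and nuclei were counted on 4× images. Relative viability is the ratio of nuclei in treated wells to nuclei in vehicle wells, taken as the median of duplicate plates.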

[2] = compound: CCC1=CN=CN=C1N2CCN(CC2)CC3=NC4=C(N3)C=C(C=C4)C(F)(F)F + Nc1nc2[nH]cc(CCc3ccc(C(=O)N[C@@H](CCC(=O)O)C(=O)O)cc3)c2c(=O)[nH]1 [Pemetrexed] (partner 0.2 µM)
In short: as §1

[3] = compound: CCC1=CN=CN=C1N2CCN(CC2)CC3=NC4=C(N3)C=C(C=C4)C(F)(F)F + COc1cccc2cc(-c3nc([C@H]4CC[C@H](C(=O)O)CC4)n4ncnc(N)c34)[nH]c12 [OSI-027] (partner 0.5 µM)
In short: as §1

[4] = compound: CCn1c(-c2nonc2N)nc2cnc(Oc3cccc(NC(=O)c4ccc(OCCN5CCOCC5)cc4)c3)cc21 + CS(=O)(=O)N1CCN(Cc2cc3nc(-c4cccc5[nH]ncc45)nc(N4CCOCC4)c3s2)CC1 [Pictilisib] (partner 1 µM)
In short: as §1

Cell Line	relative viability ([1]; first compound 0.04 µM)	relative viability ([1]; first compound 0.1265 µM)	relative viability ([1]; first compound 0.4 µM)	relative viability ([1]; first compound 1.265 µM)	relative viability ([1]; first compound 4 µM)	relative viability ([2]; first compound 0.04 µM)	relative viability ([2]; first compound 0.1265 µM)	relative viability ([2]; first compound 0.4 µM)	relative viability ([2]; first compound 1.265 µM)	relative viability ([2]; first compound 4 µM)	relative viability ([3]; first compound 0.04 µM)	relative viability ([3]; first compound 0.1265 µM)	relative viability ([3]; first compound 0.4 µM)	relative viability ([3]; first compound 1.265 µM)	relative viability ([3]; first compound 4 µM)	relative viability ([4]; first compound 0.04 µM)	relative viability ([4]; first compound 0.1265 µM)	relative viability ([4]; first compound 0.4 µM)	relative viability ([4]; first compound 1.265 µM)	relative viability ([4]; first compound 4 µM)
201T	0.923	0.889	0.819	0.817	1.06	0.274	0.312	0.297	0.322	0.375	0.737	0.752	0.748	0.664	0.747	0.732	0.67	0.586	0.631	0.743
A549																0.801	0.408	0.436	0.139	0.0926
A-427	0.776	0.836	0.794	0.721	0.809	0.761	0.934	0.873	0.835	0.898	0.432	0.476	0.413	0.434	0.417	0.879	0.674	0.666	0.526	0.402
ABC-1			0.989	0.84	1.03						0.492	0.416	0.351	0.507	0.555	1.34	0.599	0.494	0.442	0.401
BEN	0.556	0.566	0.565	0.457	0.464	0.605	0.651	0.667	0.551	0.676	0.299	0.276	0.317	0.223	0.256	0.574	0.501	0.43	0.285	0.318
CAL-12T	0.664	0.8	0.623	0.782	0.568	1.3	1.18	1.19	1.24	1.18	0.481	0.691	0.545	0.577	0.627	0.486	0.549	0.525		0.408
COR-L23	0.464	0.523	0.404	0.44	0.462	0.208	0.199	0.189	0.198	0.206	0.777	0.783	0.605	0.635	0.7	1.02	0.68	0.238	0.197	0.192
COR-L 105	0.811	0.879	0.802	0.601	1.05	1.07	1.12	1.28	1.01	1.03	0.609	0.616	0.6	0.468	0.744	0.361	0.368	0.277	0.17	0.249
Calu-6																1.06	0.808	0.797	0.54	0.403
ChaGo-K-1	0.792	0.75	0.712	0.648	0.824	0.253	0.261	0.275	0.258	0.262	0.542	0.564	0.513	0.559	0.52	1.13	0.652	0.507		0.425
EBC-1																0.355	0.319	0.35	0.31	0.332
EKVX	0.767	0.678	0.739	0.575	0.659	0.425	0.395	0.399	0.404	0.384	0.615	0.73	0.705		0.717	0.46	0.505	0.491	0.406	0.481
EMC-BAC-2		0.415	0.422	0.386	0.484	0.436	0.43	0.455	0.418	0.469	0.37	0.37	0.386		0.375	0.655	0.517	0.395	0.382	0.339
EPLC-272H	0.311	0.598	0.373	0.392	0.351	0.308	0.33	0.276	0.318	0.281	0.255	0.302	0.264	0.308	0.276	0.406	0.341	0.181	0.258	0.281
H3255	0.946	0.576	0.929	0.762	0.754	0.59	0.552	0.59	0.568	0.575	0.559	0.633	0.515	0.566	0.552	0.63	0.593	0.517	0.473	0.52
HARA	0.542	0.492	0.57	0.556	0.466	0.276	0.242	0.227	0.226	0.222	0.317	0.456	0.392		0.529	0.345	0.345	0.157	0.148	0.0855
HCC-15	0.864	0.831	0.789	0.76	0.82	0.217	0.204	0.224	0.236	0.218	0.622	0.651	0.621	0.563	0.599	0.955	0.718	0.701	0.664	0.744
HCC-44	1.01	1.06	1.09	1.17	1.02	0.635	0.63	0.684	0.685	0.644	0.479	0.446	0.532	0.416	0.406	0.557	0.529	0.276	0.236	0.244
HCC-78	0.528	0.405	0.47	0.4	0.409	0.913	0.829	0.905	0.898	0.952	0.347	0.37	0.359	0.381	0.372	0.3	0.311	0.208	0.262	0.367
